Assay results: patent US20080145358A1, “Method for Determining Responsiveness to Chk1 Inhibitors” (ASTRAZENECA AB, priority 2005, published 2008)

How the values were obtained:
phospho-CHK [1] = assay: Western blot of phospho-CHK after DNA damaging agents in SW620 and or HT29 cells; assay type: cell-based; conditions: titration of DNA damaging agent, 8 hour incubation
Protocol: Cell were then treated with a titration of DNA damaging agents (SN-38 (CQ International, China), doxorubicin (Sigma-Aldrich, MO) or gemcitabine (CQ International, China)). Cells were then harvested after an 8 hour incubation with DNA damaging agents in Onyx lysis buffer with protease and phosphatase inhibitors (20 mM Tris, 137 mM Na Cl, […], 1% Triton X, 10% glycerol, 1.5 mM MgCl2, 1:100 dilution of Calbiochem Phophatase Inhibitor Cocktail set II, 10 mM β-glycerophosphate, 1 mM DTT, 7 μg/ml PMSF, 20KIU/ml aprotinin, 1 mM Pefabloc, 0.1 mg/ml leupeptin). Protein lysates were then generated, protein concentration determined and equal protein loaded and analyzed by Western blot analysis using a 1:100 dilution of phospho-CHK rabbit monoclonal antibody (Ser 345) (133D3) acquired from Cell Signaling (Beverly, Mass.). […] To further characterize the CHK1 activation, SW620 and HT29 cells were treated with gemcitabine (100 nM) or SN38 (100 nM) and cells harvested at different times (from 30 minutes to 24 hours). […] A panel of tumor cell lines was then examined to determine how broadly in tumor cells CHK was activated and whether p53 status impacted CHK activation. The panel of cell lines were plated and treated for 8 hours with 100 nM of gemcitabine. Cell lysates were harvested and evaluated for phospho-CHK upregulation.

phospho-CHK [2] = assay: Western blot of phospho-CHK in a panel of tumor cell lines; assay type: cell-based; conditions: 100 nM, 8 hours
Protocol: Cell were then treated with a titration of DNA damaging agents (SN-38 (CQ International, China), doxorubicin (Sigma-Aldrich, MO) or gemcitabine (CQ International, China)). […] Protein lysates were then generated, protein concentration determined and equal protein loaded and analyzed by Western blot analysis using a 1:100 dilution of phospho-CHK rabbit monoclonal antibody ([MUT]) (133D3) acquired from Cell Signaling (Beverly, Mass.). […] A panel of tumor cell lines was then examined to determine how broadly in tumor cells CHK was activated and whether p53 status impacted CHK activation. The panel of cell lines were plated and treated for 8 hours with 100 nM of gemcitabine. Cell lysates were harvested and evaluated for phospho-CHK upregulation.

phospho-CHK [3] = assay: Phospho-CHK immunohistochemistry (IHC) in HeLa or A549 cells, Metamorph quantitation; assay type: cell-based; conditions: 100 nM gemcitabine, 5 hours, FIG. 1
Protocol: Phospho-CHK regulation was also examined by immunohistochemistry (IHC). […] Cells were fixed with 4% PFA in PBS (8 minutes room temperature), permeabilized with 0.5% Triton-X in PBS, washed with PBS and washed with 0.05% Tween 20 in PBS. Cells were then blocked with 10% Goat serum for 1 hour at room temperature, incubated with 1:50 dilution of phospho-CHK rabbit monoclonal antibody ([MUT]) (133D3) acquired from Cell Signaling (Beverly, Mass.) in 10% goat serum for 90 minutes, washed twice with PBS and once with 05% Tween 20 in PBS. […] Phospho-CHK staining was then quantitated using Metamorph analysis (Universal Imaging Corp, Dowington, Pa.).

phospho-CHK [4] = assay: Western blot of phospho-CHK in H460 (dominant negative p53) xenograft tumors; assay type: in vivo, nude rats; conditions: 20 mg/kg IV
Protocol: 1×10^7 H460 cells expressing dominant negative p53 were injected into the right flank of male nude rats which had been irradiated with 5 Gy radiation 6 days prior to implantation. At day 20 when the tumors reached a size of […], animals were dosed IV with 20 mg/kg gemcitabine in 0.9% saline. Tumors were then harvested at varying time points including 1.5, 2, 2.5, 4, 6, 8 and 24 hours following gemcitabine dosing.

phospho-CHK [5] = assay: Western blot of phospho-CHK in SW620 cells, gemcitabine and CHK inhibitor combination; assay type: cell-based; conditions: 8 hours, 100 nM gemcitabine alone or 30, 100 or 500 nM CHK inhibitor alone
Protocol: Cell were then treated with 100 nM gemcitabine or 30 nM, 100 nM or 500 nM CHK inhibitor or a combination of 100 nM gemcitabine and 30 nM, 100 nM or 500 nM for 8 hours. One set of cells were then harvested for Western blot analysis. Media containing compounds were removed from the remaining cells and fresh tissue culture media added back.

phosphorylated CHK1 = assay: Phosphorylated CHK1 staining (H-score) of hair follicles in skin biopsies; assay type: in vivo, nude mice; conditions: gemcitabine 30 or 60 mg/kg IV alone or Chk inhibitor 5, 20 or 40 mg/kg IV alone, seven hours
Excerpt: Staining was specific to cell nuclei. […] Sections were then quantitated by H-score analysis.

phospho-H2AX = assay: Western blot of phospho-H2AX in SW620 and or A549 cells; assay type: cell-based; conditions: 5 hour incubation, either compound used alone
Protocol: Cells were then harvested after a 5 hour incubation directly into SDS sample buffer (NuPAGE #NP007). Samples were then sonicated, passed through a 21 gauge needle, heated to 100° C. for 5 minutes, microcentrifuged and analyzed by Western blot analysis. Protein lysates were then generated, protein concentration determined and equal protein loaded and analyzed by Western blot analysis using a 1:5000 dilution of a mouse monoclonal anti-phospho H2AX […] (Upstate, N.Y.).

Row | SMILES | phospho-CHK level by Western blot (phospho-CHK [1]) | phospho-CHK level by Western blot (phospho-CHK [2]) | area of phospho-CHK signal relative to nuclear area (phospho-CHK [3]) | time of maximum activation of CHK in tumor (phospho-CHK [4]) | time to activation of CHK in tumor (phospho-CHK [4]) | phospho-CHK in tumor at 24 hours (phospho-CHK [4]; 24 hours after dosing) | phospho-CHK level by Western blot, single agent (phospho-CHK [5]) | phosphorylated CHK1 staining of hair follicles, single agent (phosphorylated CHK1) | phospho-H2AX by Western blot, compound alone (phospho-H2AX)
1 | CCc1c2c(nc3ccc(O)cc13)-c1cc3c(c(=O)n1C2)COC(=O)[C@]3(O)CC [SN-38] | dose dependent up-regulation | – | – | – | – | – | – | – | –
2 | COc1cccc2c1C(=O)c1c(O)c3c(c(O)c1C2=O)C[C@@](O)(C(=O)CO)C[C@@H]3O[C@H]1C[C@H](N)[C@H](O)[C@H](C)O1 [doxorubicin] | dose dependent up-regulation | – | – | – | – | – | – | – | –
3 | Nc1ccn([C@@H]2O[C@H](CO)[C@@H](O)C2(F)F)c(=O)n1 [gemcitabine] | dose dependent up-regulation | upregulated in a panel of tumor cell lines, albeit to different levels | large increase | 8 h | ≤ 2 h | significantly down-regulated | increase in phospho-CHK | No staining | no change or a very modest change
